Like-named read-outs stand apart in the source and are kept apart here.
Experiments:
BCL6 BTB domain = BCL6 BTB domain (Homo sapiens (Human), UniProt P41182); test: Surface plasmon resonance (SPR) assay; format: binding; conditions: BCL6 BTB domain captured on SA chip, single cycle kinetics
[1] = system: BCL6 reporter construct (3xBCL6-TK-Luc) in SuDHL4 cells; test: Cell-based luciferase assay; conditions: Homo sapiens, SU-DHL-4, 48 h, read-out: Luciferase-Assay EC50, uM), SuDHL4-3xBCL6-TK-Luc cells, two days, high dose 10 uM
Procedure, shortened: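 SuDHL4 cells stably carrying a 3×BCL6-site TK-promoter firefly luciferase reporter, seeded at 15,000 cells/well, were dosed over a 10-point range (top 10 uM) and grown two days at 37 °C, 5% CO2. Luminescence then read after adding neolite reagent at room temperature.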

Karpas422 cells = test: Tumor cell growth inhibition assay; format: cell-based
Procedure, shortened: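 Growth inhibition was measured by ATPlite luminescence after six days of culture at 37° C. in 5% CO2. Karpas422 cells were seeded at 2,000 per well in Alpha-MEM plus 10% FBS. Compounds were given as a 10-point concentration series with a highest dose of 5 uM.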

[2] = Homo sapiens, KARPAS-422, 144 h, read-out: Tumor Growth Inhibition in Karpas-422 (IC50, uM), Karpas422 cells, six days, ATPlite

## COc1ncc(Cl)c(NC(=O)Cn2cc(-c3cc(Cl)c(O)c(C(N)=O)c3)c3c(=O)n(C)c(C)nc32)c1F [Compound I-382]
BCL6 BTB domain
  Kd: 342 nM
[1]
  EC50: 3.1 µM
Karpas422 cells; [2]
  IC50: 10 µM

## Cc1nc2c(c(-c3cc(Cl)c(O)c(C(N)=O)c3)cn2CC(=O)Nc2cc(N3CC(C)(C)N(C)C(C)(C)C3)ncc2Cl)c(=O)n1C [Compound I-232]
BCL6 BTB domain
  Kd: 11.8 nM
[1]
  EC50: 0.267 µM
Karpas422 cells; [2]
  IC50: 0.222 µM

## CN1C2CCC1CN(c1cc(NC(=O)Cn3cc(-c4cc(C(N)=O)c(O)c(F)c4F)c4c(=O)n(C)cnc43)c(Cl)cn1)C2 [Compound I-285]
BCL6 BTB domain
  Kd: 102 nM
[1]
  EC50: 1.6 µM
Karpas422 cells; [2]
  IC50: 1.6 µM

## C[C@H]1COCCN1c1cc(NC(=O)Cn2cc(-c3cc(C(N)=O)c(O)c(F)c3F)c3c(=O)n(C)cnc32)c(Cl)c(F)n1 [Compound I-317]
BCL6 BTB domain
  Kd: 54.9 nM
[1]
  EC50: 0.633 µM
Karpas422 cells; [2]
  IC50: 0.467 µM

## C[C@H]1CN(Cc2ccco2)CCN1c1cc(NC(=O)Cn2cc(-c3cc(C(N)=O)c(O)c(F)c3F)c3c(=O)n(C)cnc32)c(Cl)cn1 [Compound I-405]
BCL6 BTB domain
  Kd: 32.6 nM
[1]
  EC50: 0.459 µM
Karpas422 cells; [2]
  IC50: 0.254 µM

## Cc1nc2c(c(-c3cc(Cl)c(O)c(C(N)=O)c3)cn2CC(=O)Nc2cc(N3CCN(C)CC3)ncc2Cl)c(=O)n1C [Compound I-306]
BCL6 BTB domain
  Kd: 15.8 nM
[1]
  EC50: 0.106 µM
Karpas422 cells; [2]
  IC50: 0.265 µM

## C[C@H]1CN(Cc2ccccc2)CCN1c1cc(NC(=O)Cn2cc(-c3cc(C(N)=O)c(O)c(F)c3F)c3c(=O)n(C)cnc32)c(Cl)cn1 [Compound I-314]
BCL6 BTB domain
  Kd: 117 nM
[1]
  EC50: 0.901 µM
Karpas422 cells; [2]
  IC50: 6.7 µM

## Cn1cnc2c(c(-c3cc(F)c(O)c(C(N)=O)c3)cn2CC(=O)Nc2cc(N3C4CCC3COC4)ncc2Cl)c1=O [Compound I-436]
BCL6 BTB domain
  Kd: 14.1 nM
[1]
  EC50: 0.803 µM
Karpas422 cells; [2]
  IC50: 0.401 µM

## Cn1cnc2c(c(-c3cc(Cl)c(O)c(C(N)=O)c3)cn2CC(=O)Nc2cc(N3CCOCC3(C)C)ncc2Cl)c1=O [Compound I-212]
BCL6 BTB domain
  Kd: 28.4 nM
[1]
  EC50: 0.494 µM
Karpas422 cells; [2]
  IC50: 0.457 µM

## Cn1cnc2c(c(-c3cc(F)c(O)c(C(N)=O)c3)cn2CC(=O)Nc2cc(N3CCCC3)ncc2Cl)c1=O [Compound I-273]
BCL6 BTB domain
  Kd: 5.31 nM
[1]
  EC50: 0.416 µM
Karpas422 cells; [2]
  IC50: 0.251 µM

## C[C@@H]1CN(c2cc(NC(=O)Cn3cc(-c4cc(C(N)=O)c(O)c(Cl)c4F)c4c(=O)n(C)cnc43)c(Cl)cn2)C[C@H](C)O1 [Compound I-170]
BCL6 BTB domain
  Kd: 369 nM
[1]
  EC50: 2.14 µM
Karpas422 cells; read-out: Tumor Growth Inhibition in Karpas-422 (IC50), Karpas422 cells, six days, ATPlite
  IC50: 10 µM

## CCN1CCN(c2cc(NC(=O)Cn3cc(-c4cc(Cl)c(O)c(C(N)=O)c4)c4c(=O)n(C)c(C(F)(F)F)nc43)c(Cl)cn2)[C@@H](C)C1 [Compound I-376]
BCL6 BTB domain
  Kd: 73.4 nM
[1]
  EC50: 0.385 µM
Karpas422 cells; [2]
  IC50: 0.366 µM

## COCn1c(Cl)nc2c(c(-c3cc(Cl)c(O)c(C(N)=O)c3)cn2CC(=O)Nc2cc(N3CCN(C)C[C@@H]3C)ncc2Cl)c1=O [Compound I-323]
BCL6 BTB domain
  Kd: 100 nM
[1]
  EC50: 1.09 µM
Karpas422 cells; [2]
  IC50: 0.914 µM

## CO[C@@H]1CC(c2cc(NC(=O)Cn3cc(-c4cc(Cl)c(O)c(C(N)=O)c4)c4c(=O)n(C)cnc43)c(Cl)c(F)n2)C[C@@H]1F (stereo partly drawn) [Compound I-440]
BCL6 BTB domain
  Kd: 15.8 nM
[1]
  EC50: 0.286 µM
Karpas422 cells; [2]
  IC50: 0.291 µM

## CN1CCC2(C1)CN(c1cc(NC(=O)Cn3cc(-c4cc(F)c(O)c(C(N)=O)c4)c4c(=O)n(C)cnc43)c(Cl)cn1)C2 [Compound I-486]
BCL6 BTB domain
  Kd: 30 nM
[1]
  EC50: 6.95 µM
Karpas422 cells; [2]
  IC50: 10 µM

## CN1CCOC2(CCN(c3cc(NC(=O)Cn4cc(-c5cc(C(N)=O)c(O)cc5F)c5c(=O)n(C)cnc54)c(Cl)cn3)C2)C1 (stereo not drawn) [Compound I-184]
BCL6 BTB domain
  Kd: 37.4 nM
[1]
  EC50: 0.348 µM
Karpas422 cells; [2]
  IC50: 0.26 µM

## Cc1cc(NC(=O)Cn2cc(-c3cc(Cl)c(O)c(C(N)=O)c3)c3c(=O)n(C)cnc32)c(Cl)cn1 [Compound I-334]
BCL6 BTB domain
  Kd: 30.5 nM
[1]
  EC50: 0.475 µM
Karpas422 cells; [2]
  IC50: 0.829 µM

## Cn1cnc2c(c(-c3cc(F)c(O)c(C(N)=O)c3)cn2CC(=O)Nc2cc(N3CC4CC3CO4)ncc2Cl)c1=O (stereo not drawn) [Compound I-284]
BCL6 BTB domain
  Kd: 23.4 nM
[1]
  EC50: 0.628 µM
Karpas422 cells; [2]
  IC50: 0.75 µM

## CN(C)c1cc(NC(=O)Cn2cc(-c3cc(Cl)c(O)c(C(N)=O)c3)c3c(=O)n(C)cnc32)c(Cl)c(F)n1 [Compound I-421]
BCL6 BTB domain
  Kd: 14.7 nM
[1]
  EC50: 0.154 µM
Karpas422 cells; [2]
  IC50: 0.154 µM

## CN(C)CC1CN(c2cc(NC(=O)Cn3cc(-c4cc(Cl)c(O)c(C(N)=O)c4)c4c(=O)n(C)cnc43)c(Cl)cn2)CCO1 (stereo not drawn) [Compound I-215]
BCL6 BTB domain
  Kd: 9.81 nM
[1]
  EC50: 0.806 µM
Karpas422 cells; [2]
  IC50: 0.662 µM

## CO[C@H]1CN(c2cc(NC(=O)Cn3cc(-c4cc(Cl)c(O)c(C(N)=O)c4)c4c(=O)n(C)c(C(F)(F)F)nc43)c(Cl)cn2)C[C@H]1F [Compound I-387]
BCL6 BTB domain
  Kd: 189 nM
[1]
  EC50: 1.12 µM
Karpas422 cells; [2]
  IC50: 1.04 µM

## CCN1CCN(c2cc(NC(=O)Cn3cc(-c4cc(C(N)=O)c(O)c(F)c4F)c4c(=O)n(C)c(C)nc43)c(Cl)cn2)[C@@H](C)C1 [Compound I-435]
BCL6 BTB domain
  Kd: 48.9 nM
[1]
  EC50: 0.847 µM
Karpas422 cells; [2]
  IC50: 0.415 µM

## COc1cc(-c2cn(CC(=O)Nc3cc(N4CCOC[C@@H]4C)ncc3Cl)c3nc(C)n(C)c(=O)c23)cc(C(N)=O)c1O [Compound I-122]
BCL6 BTB domain
  Kd: 6 nM
[1]
  EC50: 0.119 µM
Karpas422 cells; [2]
  IC50: 0.078 µM

## CC1CN(C)CC(C)N1c1cc(NC(=O)Cn2cc(-c3cc(Cl)c(O)c(C(N)=O)c3)c3c(=O)n(C)cnc32)c(Cl)cn1 (stereo not drawn) [Compound I-340]
BCL6 BTB domain
  Kd: 11.6 nM
[1]
  EC50: 0.0724 µM
Karpas422 cells; [2]
  IC50: 0.0759 µM

## C[C@H]1CN(C2COC2)CCN1c1cc(NC(=O)Cn2cc(-c3cc(Cl)c(O)c(C(N)=O)c3)c3c(=O)n(C)c(C(F)(F)F)nc32)c(Cl)cn1 [Compound I-371]
BCL6 BTB domain
  Kd: 39.5 nM
[1]
  EC50: 0.141 µM
Karpas422 cells; [2]
  IC50: 0.288 µM

## C[C@H]1COCCN1c1cc(NC(=O)Cn2cc(-c3cc(C(N)=O)c(O)c(F)c3F)c3c(=O)n(CC#Cc4cnn(C)c4)cnc32)c(Cl)cn1 [Compound I-321]
BCL6 BTB domain
  Kd: 9.19 nM
[1]
  EC50: 0.405 µM
Karpas422 cells; [2]
  IC50: 0.437 µM

## C[C@H]1COCCN1c1cc(NC(=O)Cn2cc(-c3cc(C(N)=O)c(O)c(Cl)c3F)c3c(=O)n(C)cnc32)c(Cl)cn1 [Compound I-167]
BCL6 BTB domain
  Kd: 299 nM
[1]
  EC50: 2.81 µM
Karpas422 cells; [2]
  IC50: 2.34 µM

## Cn1cnc2c(c(-c3cc(Cl)c(O)c(C(N)=O)c3)cn2CC(=O)NC2CCCCC2F)c1=O (stereo not drawn) [Compound I-246]
BCL6 BTB domain
  Kd: 1320 nM
[1]
  EC50: 10 µM
Karpas422 cells; [2]
  IC50: 10 µM

## Cn1cnc2c(c(-c3cc(Cl)c(O)c(C(N)=O)c3)cn2CC(=O)NC2CCCCC2)c1=O [Compound I-211]
BCL6 BTB domain
  Kd: 1210 nM
[1]
  EC50: 10 µM
Karpas422 cells; [2]
  IC50: 10 µM

## Cn1cnc2c(c(-c3cc(Cl)c(O)c(C(N)=O)c3)cn2CC(=O)Nc2cc(N3CC4(CCOC4)C3)ncc2Cl)c1=O [Compound I-351]
BCL6 BTB domain
  Kd: 40.1 nM
[1]
  EC50: 0.591 µM
Karpas422 cells; [2]
  IC50: 1.2 µM

## Cc1ccc(CN2CCN(c3cc(NC(=O)Cn4cc(-c5cc(C(N)=O)c(O)c(F)c5F)c5c(=O)n(C)cnc54)c(Cl)cn3)[C@@H](C)C2)s1 [Compound I-406]
BCL6 BTB domain
  Kd: 574 nM
[1]
  EC50: 3.06 µM
Karpas422 cells; [2]
  IC50: 4.32 µM

## CN(C)c1cc(NC(=O)Cn2cc(-c3cc(Cl)c(O)c(C(N)=O)c3)c3c(=O)[nH]c(Cl)nc32)c(Cl)cn1 [Compound I-293]
BCL6 BTB domain
  Kd: 18.3 nM
[1]
  EC50: 10 µM
Karpas422 cells; [2]
  IC50: 2.44 µM

## Cn1cnc2c(c(-c3cc(C(N)=O)c(O)c(F)c3F)cn2CC(=O)Nc2cc(N3CCOCC3)ncc2F)c1=O [Compound I-404]
BCL6 BTB domain
  Kd: 106 nM
[1]
  EC50: 4.06 µM
Karpas422 cells; [2]
  IC50: 10 µM

## Cn1cnc2c(c(-c3cc(C(N)=O)c(O)c(F)c3F)cn2CC(=O)Nc2cc(N3Cc4ccncc4C3)ncc2Cl)c1=O [Compound I-468]
BCL6 BTB domain
  Kd: 23.5 nM
[1]
  EC50: 0.461 µM
Karpas422 cells; [2]
  IC50: 0.417 µM

## CO[C@@H](C)CN1CCN(c2cc(NC(=O)Cn3cc(-c4cc(C(N)=O)c(O)c(F)c4F)c4c(=O)n(C)cnc43)c(Cl)c(F)n2)[C@@H](C)C1 [Compound I-462]
BCL6 BTB domain
  Kd: 50.3 nM
[1]
  EC50: 0.184 µM
Karpas422 cells; [2]
  IC50: 0.289 µM

## C[C@H]1CN(C2CCC2)CCN1c1cc(NC(=O)Cn2cc(-c3cc(Cl)c(O)c(C(N)=O)c3)c3c(=O)n(C)cnc32)c(Cl)cn1 [Compound I-358]
BCL6 BTB domain
  Kd: 22.7 nM
[1]
  EC50: 0.256 µM
Karpas422 cells; [2]
  IC50: 0.341 µM

Reference: patent US11518764B2, “Substituted heteroaryls as inhibitors of the BCL6 BTB domain protein-protein interaction” (Ontario Institute for Cancer Research (OICR), priority 2018, dated 2022)
